Laboratory results taken from patent US9782406B2, “Kinase inhibitor and method for treatment of related diseases” (PEKING UNIVERSITY SHENZHEN GRADUATE SCHOOL, priority 2011, dated 2017).

Tests used:
Btk = Btk (Homo sapiens, UniProt Q06187); experiment: Btk in vitro inhibitory activity, acellular TR-FRET kinase assay; assay type: biochemical; conditions: read-out: Btk IC50 (Efficacy); further: 1 µM peptide substrate
Experimental: Btk kinase activity was determined using a time-resolved fluorescence resonance energy transfer (TR-FRET) methodology. Measurements were performed in a reaction volume of 50 μL using 96-well assay plates. […] The TR-FRET signal was measured on a multimode plate reader with an excitation wavelength (λEx) of 330 nm and detection wavelengths (λEm) of 615 and 665 nm. Activity was determined by the ratio of the fluorescence at 665 nm to that at 615 nm. For each compound, enzyme activity was measured at various concentrations of compound. Negative control reactions were performed in the absence of inhibitor in replicates of six, and two no-enzyme controls were used to determine baseline fluorescence levels. IC50s were obtained using the program Batch Ki (Kuzmic et al. (2000), Anal. Biochem. 286:45-50).

[1] = test system: rat basophilic leukemia cells (RBL-2H3); conditions: mast cells treated with Btk inhibitor; cited from earlier work

Chain of Btk (Q06187 whole entry): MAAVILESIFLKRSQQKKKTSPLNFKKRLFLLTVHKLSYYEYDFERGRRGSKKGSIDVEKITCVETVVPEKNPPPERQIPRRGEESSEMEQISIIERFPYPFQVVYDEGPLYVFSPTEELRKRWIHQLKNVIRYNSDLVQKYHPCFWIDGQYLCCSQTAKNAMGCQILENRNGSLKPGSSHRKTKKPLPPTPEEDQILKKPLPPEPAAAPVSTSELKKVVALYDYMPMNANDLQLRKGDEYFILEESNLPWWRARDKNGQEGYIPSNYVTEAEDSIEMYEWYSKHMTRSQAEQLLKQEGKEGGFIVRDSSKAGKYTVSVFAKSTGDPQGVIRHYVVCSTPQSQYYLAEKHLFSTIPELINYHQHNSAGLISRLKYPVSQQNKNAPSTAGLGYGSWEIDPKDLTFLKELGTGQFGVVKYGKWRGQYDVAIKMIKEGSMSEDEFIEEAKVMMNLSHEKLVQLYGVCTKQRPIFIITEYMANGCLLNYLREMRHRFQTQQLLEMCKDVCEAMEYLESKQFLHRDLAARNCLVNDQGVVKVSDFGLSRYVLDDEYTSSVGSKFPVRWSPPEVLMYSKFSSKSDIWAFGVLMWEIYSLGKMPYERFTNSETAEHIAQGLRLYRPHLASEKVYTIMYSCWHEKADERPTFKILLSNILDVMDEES

| SMILES | IC50 (Btk) [nM] | release of histamine reduced [1] |
| --- | --- | --- |
| C=CC(=O)Nc1cccc(Nc2ncc(NC(=O)c3cc(NC(=O)c4cccc(N(C)C)c4)ccc3C)cn2)c1 [Example 18] | < 100 | – |
| Cc1ccc(NC(=O)c2ccc(C(F)(F)F)cc2)cc1C(=O)Nc1cnc(Nc2cccc(N)c2)nc1 [Example 26] | < 100 | – |
| C=CC(=O)Nc1cccc(Nc2ncc(NC(=O)c3cc(NC(=O)c4ccc5ccccc5c4)ccc3C)cn2)c1 [Example 11] | < 100 | – |
| C=CC(=O)Nc1cccc(Nc2ncc(NC(=O)c3cc(NC(=O)c4cccc(Cl)c4)ccc3C)cn2)c1 [Example 15] | < 100 | – |
| C=CC(=O)Nc1cccc(Nc2ncc(NC(=O)c3cc(NC(=O)c4cccc(C(F)(F)F)c4)ccc3Cl)cn2)c1 [Example 6] | < 100 | – |
| C=CC(=O)Nc1cccc(Nc2ncc(NC(=O)c3cc(NC(=O)c4cnoc4C)ccc3C)cn2)c1 [Example 17] | 100 to 1000 | – |
| Nc1cccc(Nc2ncc(NC(=O)c3cccc(NC(=O)c4cccc(C(F)(F)F)c4)c3)cn2)c1 [Example 32] | 100 to 1000 | – |
| C=CC(=O)Nc1cccc(Nc2ncc(NC(=O)c3cc(NC(=O)c4cc(OC)cc(OC)c4)ccc3C)cn2)c1 [Example 12] | < 100 | – |
| CCC(=O)Nc1ccc(C)c(C(=O)Nc2cnc(Nc3cccc(N)c3)nc2)c1 [Example 22] | 1000 to 10000 | – |
| C=CC(=O)Nc1cccc(Nc2ncc(NC(=O)c3cc(NC(=O)C4CC4)ccc3C)cn2)c1 [Example 19] | 100 to 1000 | – |
| Cc1ccc(NC(=O)c2ccc3ccccc3c2)cc1C(=O)Nc1cnc(Nc2cccc(N)c2)nc1 [Example 23] | < 100 | – |
| C=CC(=O)Nc1cccc(Nc2ncc(NC(=O)c3cccc(NC(=O)c4cccc(C(F)(F)F)c4)c3)cn2)c1 [Example 8] | < 100 | – |
| C=CS(=O)(=O)Nc1cccc(Nc2ncc(NC(=O)c3cc(NC(=O)c4cccc(C(F)(F)F)c4)ccc3C)cn2)c1 [Example 3] | < 100 | – |
| Cc1ccc(NC(=O)c2cc(Cl)cc(C(F)(F)F)c2)cc1C(=O)Nc1cnc(Nc2cccc(N)c2)nc1 [Example 21] | < 100 | – |
| C=CC(=O)NCC(=O)Nc1cccc(Nc2ncc(NC(=O)c3cc(NC(=O)c4cccc(C(F)(F)F)c4)ccc3C)cn2)c1 [Example 4] | < 100 | – |
| COc1cc(OC)cc(C(=O)Nc2ccc(C)c(C(=O)Nc3cnc(Nc4cccc(N)c4)nc3)c2)c1 [Example 24] | < 100 | – |
| C=CC(=O)N(C(=O)C=C)c1cccc(Nc2ncc(NC(=O)c3cc(NC(=O)c4cccc(C(F)(F)F)c4)ccc3C)cn2)c1 [Example 5] | 100 to 1000 | – |
| Cc1ccc(NC(=O)Nc2cccc(C(F)(F)F)c2)cc1C(=O)Nc1cnc(Nc2cccc(N)c2)nc1 [Example 35] | < 100 | – |

| SMILES | IC50 (Btk) [nM] | release of histamine reduced [1] |
| --- | --- | --- |
| Cc1ccc(NC(=O)c2cnoc2C)cc1C(=O)Nc1cnc(Nc2cccc(N)c2)nc1 [Example 29] | 100 to 1000 | – |
| C=CC(=O)Nc1cccc(Nc2ncc(NC(=O)c3cc(NC(=O)c4ccc(C(F)(F)F)cc4)ccc3C)cn2)c1 [Example 14] | < 100 | – |
| Cc1ccc(NC(=O)c2cccc(Cl)c2)cc1C(=O)Nc1cnc(Nc2cccc(N)c2)nc1 [Example 27] | < 100 | – |
| C/C=C/C(=O)Nc1cccc(Nc2ncc(NC(=O)c3cc(NC(=O)c4cccc(C(F)(F)F)c4)ccc3C)cn2)c1 [Example 2] | < 100 | – |
| C=CC(=O)Nc1cccc(Nc2ncc(NC(=O)c3cc(NC(=O)c4ccc5c(c4)OC(F)(F)O5)ccc3C)cn2)c1 [Example 13] | < 100 | – |
| C=CC(=O)Nc1cccc(Nc2ncc(NC(=O)c3cc(NC(=O)c4cccc(C(F)(F)F)c4)ccc3F)cn2)c1 [Example 7] | < 100 | – |
| Cc1ccc(NC(=O)c2cccc(F)c2)cc1C(=O)Nc1cnc(Nc2cccc(N)c2)nc1 [Example 28] | 100 to 1000 | – |
| Cc1ccc(NC(=O)c2cccc(C(F)(F)F)c2)cc1C(=O)Nc1cnc(Nc2cccc(N)c2)nc1 [Example 20] | < 100 | – |
| Nc1cccc(Nc2ncc(NC(=O)c3cc(NC(=O)c4cccc(C(F)(F)F)c4)ccc3F)cn2)c1 [Example 34] | < 100 | – |
| C=CC(=O)Nc1cccc(Nc2ncc(NC(=O)c3ccccc3C)cn2)c1 [Example 9] | < 100 | – |
| Cc1ccc(NC(=O)c2ccc3c(c2)OC(F)(F)O3)cc1C(=O)Nc1cnc(Nc2cccc(N)c2)nc1 [Example 25] | < 100 | – |
| C=CC(=O)Nc1cccc(Nc2ncc(NC(=O)c3cc(NC(=O)c4cccc(F)c4)ccc3C)cn2)c1 [Example 16] | < 100 | – |
| Cc1ccc(NC(=O)/C=C/c2ccccc2)cc1C(=O)Nc1cnc(Nc2cccc(N)c2)nc1 [Example 37] | 100 to 1000 | – |
| Cc1ccc(NC(=O)c2cccc(N(C)C)c2)cc1C(=O)Nc1cnc(Nc2cccc(N)c2)nc1 [Example 30] | < 100 | – |
| Cc1ccc(NC(=O)C2CC2)cc1C(=O)Nc1cnc(Nc2cccc(N)c2)nc1 [Example 31] | 1000 to 10000 | – |
| C=CC(=O)Nc1cccc(Nc2ncc(NC(=O)c3cc(NC(=O)CC)ccc3C)cn2)c1 [Example 10] | 100 to 1000 | – |
| C/C(O)=C(\C#N)C(=O)Nc1cc(Br)ccc1Br [LFM-A13] | – | 20-25% |
| Nc1cccc(Nc2ncc(NC(=O)c3cc(NC(=O)c4cccc(C(F)(F)F)c4)ccc3Cl)cn2)c1 [Example 33] | < 100 | – |
